Laboratory results from the supplement of paper PMC10307832.

Key:
Assay in all cases: relative viability (nuclei count vs DMSO), 5 days (fraction); higher = more cells survive
[1] = compound: C1CNCCC1C2=CC(=NN2)C3=CC=NC=C3 + CC(C)C[C@H](NC(=O)[C@H](Cc1ccccc1)NC(=O)c1cnccn1)B(O)O [Bortezomib] (partner 0.002 µM)
How it was run: (§1)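 Relative viability divides the nuclei count in treated wells by that in vehicle wells. Lung cancer cell lines were seeded in 1536-well plates, dosed by pin tool the next day, and fixed and stained after 5 days in one step with final 0.05% Triton X-100, 1% formaldehyde and 1 ug/ml Hoechst. Dosing was a single drug or a fixed anchor-drug dose plus five library-drug doses (not always all listed) in √10 steps, and values are medians of duplicate plates imaged at 4×.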

[2] = compound: C[C@@H](N)c1ccc(C(=O)Nc2ccnc3[nH]ccc23)cc1 + N=C(N)NC(=N)NCCc1ccccc1 [Phenformin] (partner 250 µM)
How it was run: as §1

[3] = compound: C1CNCCC1C2=CC(=NN2)C3=CC=NC=C3 + Cc1cc(Nc2cc(N3CCN(C)CC3)nc(Sc3ccc(NC(=O)C4CC4)cc3)n2)n[nH]1 [Tozasertib] (partner 0.1 µM)
How it was run: as §1

[4] = compound: C[C@@H](N)c1ccc(C(=O)Nc2ccnc3[nH]ccc23)cc1 + Nc1ncn([C@H]2C[C@H](O)[C@@H](CO)O2)c(=O)n1 [Decitabine] (partner 2 µM)
How it was run: as §1

Cell Line: NCI-H1299
- relative viability ([1]; first compound 0.08 µM): 1.02
- relative viability ([1]; first compound 0.8 µM): 1.01
- relative viability ([1]; first compound 2.53 µM): 1.02
- relative viability ([1]; first compound 8 µM): 0.999

Cell Line: NCI-H1395
- relative viability ([2]; first compound 0.04 µM): 0.433
- relative viability ([2]; first compound 0.1265 µM): 0.497
- relative viability ([2]; first compound 0.4 µM): 0.436
- relative viability ([2]; first compound 1.265 µM): 0.36
- relative viability ([2]; first compound 4 µM): 0.453
- relative viability ([3]; first compound 0.08 µM): 0.731
- relative viability ([3]; first compound 0.8 µM): 0.643
- relative viability ([3]; first compound 2.53 µM): 0.813
- relative viability ([3]; first compound 8 µM): 0.766
- relative viability ([4]; first compound 0.04 µM): 0.712
- relative viability ([4]; first compound 0.1265 µM): 0.697
- relative viability ([4]; first compound 0.4 µM): 0.725
- relative viability ([4]; first compound 4 µM): 0.642

Cell Line: NCI-H1563
- relative viability ([2]; first compound 0.04 µM): 0.623
- relative viability ([2]; first compound 0.1265 µM): 0.74
- relative viability ([2]; first compound 0.4 µM): 0.632
- relative viability ([2]; first compound 1.265 µM): 0.687
- relative viability ([2]; first compound 4 µM): 0.641
- relative viability ([1]; first compound 0.08 µM): 0.744
- relative viability ([1]; first compound 0.8 µM): 0.853
- relative viability ([1]; first compound 2.53 µM): 0.917
- relative viability ([1]; first compound 8 µM): 0.977

Cell Line: NCI-H1623
- relative viability ([2]; first compound 0.04 µM): 0.637
- relative viability ([2]; first compound 0.1265 µM): 0.528
- relative viability ([2]; first compound 0.4 µM): 0.415
- relative viability ([2]; first compound 1.265 µM): 0.29
- relative viability ([2]; first compound 4 µM): 0.622
- relative viability ([3]; first compound 0.08 µM): 0.434
- relative viability ([3]; first compound 0.8 µM): 0.446
- relative viability ([3]; first compound 2.53 µM): 0.439
- relative viability ([3]; first compound 8 µM): 0.454

Cell Line: NCI-H1648
- relative viability ([3]; first compound 0.08 µM): 0.425
- relative viability ([3]; first compound 0.8 µM): 0.475
- relative viability ([3]; first compound 2.53 µM): 0.461
- relative viability ([3]; first compound 8 µM): 0.508
- relative viability ([4]; first compound 0.04 µM): 0.746
- relative viability ([4]; first compound 0.1265 µM): 0.545
- relative viability ([4]; first compound 0.4 µM): 0.762
- relative viability ([4]; first compound 1.265 µM): 0.754
- relative viability ([4]; first compound 4 µM): 0.815

Cell Line: NCI-H1703
- relative viability ([1]; first compound 0.08 µM): 0.502
- relative viability ([1]; first compound 0.8 µM): 0.334
- relative viability ([1]; first compound 2.53 µM): 0.351
- relative viability ([1]; first compound 8 µM): 0.366

Cell Line: NCI-H1792
- relative viability ([2]; first compound 0.04 µM): 0.286
- relative viability ([2]; first compound 0.4 µM): 0.15
- relative viability ([2]; first compound 1.265 µM): 0.278
- relative viability ([2]; first compound 4 µM): 0.357
- relative viability ([4]; first compound 0.04 µM): 0.571
- relative viability ([4]; first compound 0.1265 µM): 0.558
- relative viability ([4]; first compound 0.4 µM): 0.489
- relative viability ([4]; first compound 1.265 µM): 0.675
- relative viability ([4]; first compound 4 µM): 0.462
- relative viability ([1]; first compound 0.08 µM): 0.96
- relative viability ([1]; first compound 0.8 µM): 0.998
- relative viability ([1]; first compound 2.53 µM): 1.07
- relative viability ([1]; first compound 8 µM): 0.993

Cell Line: NCI-H1793
- relative viability ([2]; first compound 0.04 µM): 0.355
- relative viability ([2]; first compound 0.1265 µM): 0.424
- relative viability ([2]; first compound 0.4 µM): 0.421
- relative viability ([2]; first compound 4 µM): 0.393
- relative viability ([3]; first compound 0.08 µM): 0.313
- relative viability ([3]; first compound 0.8 µM): 0.243
- relative viability ([3]; first compound 2.53 µM): 0.332
- relative viability ([3]; first compound 8 µM): 0.373
- relative viability ([4]; first compound 0.04 µM): 0.506
- relative viability ([4]; first compound 0.1265 µM): 0.556
- relative viability ([4]; first compound 0.4 µM): 0.547
- relative viability ([4]; first compound 4 µM): 0.463

Cell Line: NCI-H1944
- relative viability ([2]; first compound 0.04 µM): 0.157
- relative viability ([2]; first compound 0.1265 µM): 0.216
- relative viability ([2]; first compound 0.4 µM): 0.153
- relative viability ([2]; first compound 1.265 µM): 0.165
- relative viability ([2]; first compound 4 µM): 0.138
- relative viability ([3]; first compound 0.08 µM): 0.243
- relative viability ([3]; first compound 0.8 µM): 0.264
- relative viability ([3]; first compound 2.53 µM): 0.263
- relative viability ([3]; first compound 8 µM): 0.256
- relative viability ([4]; first compound 0.04 µM): 0.524
- relative viability ([4]; first compound 0.1265 µM): 0.425
- relative viability ([4]; first compound 0.4 µM): 0.458
- relative viability ([4]; first compound 1.265 µM): 0.495
- relative viability ([4]; first compound 4 µM): 0.404

Cell Line: NCI-H2170
- relative viability ([2]; first compound 0.04 µM): 0.401
- relative viability ([2]; first compound 0.1265 µM): 0.442
- relative viability ([2]; first compound 0.4 µM): 0.492
- relative viability ([2]; first compound 1.265 µM): 0.353
- relative viability ([2]; first compound 4 µM): 0.38
- relative viability ([3]; first compound 0.08 µM): 0.667
- relative viability ([3]; first compound 0.8 µM): 0.621
- relative viability ([3]; first compound 2.53 µM): 0.775
- relative viability ([3]; first compound 8 µM): 0.681
- relative viability ([4]; first compound 0.04 µM): 0.497
- relative viability ([4]; first compound 0.1265 µM): 0.467
- relative viability ([4]; first compound 0.4 µM): 0.489
- relative viability ([4]; first compound 1.265 µM): 0.517
- relative viability ([4]; first compound 4 µM): 0.429

Cell Line: NCI-H2228
- relative viability ([2]; first compound 0.04 µM): 0.354
- relative viability ([2]; first compound 0.1265 µM): 0.393
- relative viability ([2]; first compound 0.4 µM): 0.315
- relative viability ([2]; first compound 1.265 µM): 0.33
- relative viability ([2]; first compound 4 µM): 0.357
- relative viability ([3]; first compound 0.08 µM): 0.28
- relative viability ([3]; first compound 0.8 µM): 0.191
- relative viability ([3]; first compound 2.53 µM): 0.274
- relative viability ([3]; first compound 8 µM): 0.309
- relative viability ([1]; first compound 0.08 µM): 0.929
- relative viability ([1]; first compound 0.8 µM): 1.22
- relative viability ([1]; first compound 2.53 µM): 1.07
- relative viability ([1]; first compound 8 µM): 0.863

Cell Line: NCI-H2342
- relative viability ([2]; first compound 0.04 µM): 0.718
- relative viability ([2]; first compound 0.1265 µM): 0.731
- relative viability ([2]; first compound 0.4 µM): 0.676
- relative viability ([2]; first compound 1.265 µM): 0.718
- relative viability ([2]; first compound 4 µM): 0.622
- relative viability ([3]; first compound 0.08 µM): 0.437
- relative viability ([3]; first compound 0.8 µM): 0.491
- relative viability ([3]; first compound 2.53 µM): 0.537
- relative viability ([3]; first compound 8 µM): 0.518
- relative viability ([4]; first compound 0.04 µM): 0.758
- relative viability ([4]; first compound 0.1265 µM): 0.624
- relative viability ([4]; first compound 0.4 µM): 0.809
- relative viability ([4]; first compound 1.265 µM): 0.798
- relative viability ([4]; first compound 4 µM): 0.746

Cell Line: SK-MES-1
- relative viability ([2]; first compound 0.04 µM): 0.63
- relative viability ([2]; first compound 0.1265 µM): 0.712
- relative viability ([2]; first compound 0.4 µM): 0.658
- relative viability ([2]; first compound 1.265 µM): 0.583
- relative viability ([2]; first compound 4 µM): 0.571
- relative viability ([3]; first compound 0.08 µM): 0.783
- relative viability ([3]; first compound 0.8 µM): 1
- relative viability ([3]; first compound 2.53 µM): 0.981
- relative viability ([3]; first compound 8 µM): 0.834
- relative viability ([4]; first compound 0.04 µM): 0.341
- relative viability ([4]; first compound 0.1265 µM): 0.309
- relative viability ([4]; first compound 0.4 µM): 0.32
- relative viability ([4]; first compound 1.265 µM): 0.322
- relative viability ([4]; first compound 4 µM): 0.314

Cell Line: SW 900
- relative viability ([2]; first compound 0.04 µM): 0.852
- relative viability ([2]; first compound 0.1265 µM): 0.687
- relative viability ([2]; first compound 0.4 µM): 0.512
- relative viability ([2]; first compound 1.265 µM): 0.618
- relative viability ([2]; first compound 4 µM): 0.531
- relative viability ([3]; first compound 0.08 µM): 0.648
- relative viability ([3]; first compound 0.8 µM): 0.623
- relative viability ([3]; first compound 2.53 µM): 0.514
- relative viability ([3]; first compound 8 µM): 0.681
- relative viability ([4]; first compound 0.04 µM): 0.412
- relative viability ([4]; first compound 0.1265 µM): 0.43
- relative viability ([4]; first compound 0.4 µM): 0.43
- relative viability ([4]; first compound 1.265 µM): 0.509
- relative viability ([4]; first compound 4 µM): 0.421
